{"source": "patent US7993670B2", "about": "“Medical pad, and method for making and using” (General Wound Kare, Inc., priority 2003, dated 2011)", "system": "wound", "experiment": "Clinical experience: treatment of a patient's wound", "key": {"[1]": {"settings": "after a week of daily 1% gentian violet solution"}}, "from_the_text": "A change in the procedure was made. Instead of the direct application of the 1% gentian violet solution, a polyurethane pad, containing a reduced amount of gentian violet, mixed with glycerin and water, and then dried, was applied to the wound covered by the scab. Daily washings were continued and the scab was eventually debrided.", "data": [{"compound": "CN(C)c1ccc(C(=C2C=CC(=[N+](C)C)C=C2)c2ccc(N(C)C)cc2)cc1", "note": "[gentian violet]", "values": [{"measurement": "scab formation", "setting": "1% gentian violet solution applied daily, wound washed daily with soap and water", "result": "scab was formed"}, {"measurement": "infection of the wound", "setting": "[1]", "result": "no evidence of any infection"}, {"measurement": "size of the wound", "setting": "[1]", "result": "remained the same"}, {"measurement": "staining of the painted wound area", "setting": "liquid gentian violet solution at 1% strength painted on the wound daily", "result": "stained purple"}]}]}
